Square brackets hold non-standard residues; d marks the D form. Peptide text beside a SMILES is read from it. * marks the point of attachment. Dolaproine = CO[C@@H]([C@@H]1CCCN1)[C@@H](C)C(=O)O; Dil = CC[C@H](C)[C@H](NC)[C@@H](CC(=O)O)OC; X1 = C[C@@H](N*)[C@@H](O)c1ccccc1; NMeV = CN[C@H](C(=O)O)C(C)C
B1: follistatin: protein encoded by the FST gene (protein, UniProt P19883 30-344, looked up)
Follistatin: GNCWLRQAKNGRCQVLYKTELSKEECCSTGRLSTSWTEEDVNDNTLFKWMIFNGGAPNCIPCKETCENVDCGPGKKCRMNKKNKPRCVCAPDCSNITWKGPVCGLDGKTYRNECALLKARCKEQPELEVQYQGRCKKTCRDVFCPGSSTCVVDQTNNAYCVTCNRICPEPASSEQYLCGNDGVTYSSACHLRKATCLLGRSIGLAYEGKCIKAKSCEDIQCTGGKKCLWDFKVGRGRCSLCDELCPDSKSDEPVCASDNATYASECAMKEAACSSGVLLEVKHSGSCNSISEDTEEEEEDEDQDYSFPISSILEW

What was measured:
[1] = tested on: folate receptor-positive KB cell line; assay: CellTiter-Glo anti-proliferation assay on KB cells; type: cell-based; settings: absence of folic acid competitor, read-out: IC50 (cell killing)
Experimental: The ability to selectively target and kill cells bearing folate receptors was evaluated. Test articles of free MMAE, a non-targeting 3×MMAE-XTEN conjugate (XTEN linked to toxin) and the folate receptor-targeted 3×FA(γ),3×MMAE-XTEN conjugate were evaluated in a CellTiter-Glo anti-proliferation assay using the folate receptor-positive KB cell line. As culture media contain high folic acid content, KB cells were grown in folic acid-free media containing 10% heat-inactivated fetal calf serum at 37° C., 5% C02 for at least 7 days prior to the commencement of the cell viability experiment, This medium was also utilized for the execution of the experiment. In brief, KB cells were plated at 10,000 cells per well onto a 96-well microtiter assay plate. KB cells were allowed to adhere to the plate by an overnight incubation at 37° C., 5% CO2. The spent media was then removed and wells designated to contain folic acid competitor received assay medium containing folic acid, while wells not designated to have folic acid competitor received assay medium only. The plate was incubated for 30 min at 37° C., 5% CO2 before the assay media was aspirated and plate washed with assay media. […] After the appropriate incubation period, CellTiter-Glo reagent was added and the plate was read on a luminometer. The IC50 of each test article was determined using a 4 parameter logistic curve fit using GraphPad Prism.

[2] = rats, intravenous administration; cited from earlier work

| Molecule | IC50 [1] [nM] | terminal half-life [2] |
| --- | --- | --- |
| CC[C@H](C)[C@@H]([C@@H](CC(=O)N1CCC[C@H]1[C@H](OC)[C@@H](C)C(=O)N[C@H](C)[C@@H](O)c1ccccc1)OC)N(C)C(=O)[C@@H](NC(=O)[C@@H](NC)C(C)C)C(C)C [MMAE, monomethyl auristatin E] (H-[NMeV]V[Dil][Dolaproine]-X1) | 0.8 | – |
| B1 | – | over 2 hours |
